Source: the NIST ThermoML archive (doi:10.1016/j.tca.2006.04.022)
± gives the expanded uncertainty stated by the source.

Test: molar heat capacity at constant pressure
Conditions: 101.33 kPa, Vacuum adiabatic calorimetry

CCOS(=O)(=O)[O-].CCn1cc[n+](C)c1 [1-ethyl-3-methylimidazolium ethyl sulfate]
Conditions | molar heat capacity at constant pressure [J/K/mol]
79.23 K, Glass | 127.8 ± 8.9
79.7 K, Glass | 128.6 ± 9
80.51 K, Glass | 129.4 ± 9.1
81.67 K, Glass | 130.9 ± 9.2
82.84 K, Glass | 131.5 ± 9.2
83.99 K, Glass | 133.2 ± 9.3
85.31 K, Glass | 135.2 ± 9.5
86.78 K, Glass | 136.3 ± 9.5
88.25 K, Glass | 137.9 ± 9.7
89.7 K, Glass | 138.8 ± 9.7
91.13 K, Glass | 141.2 ± 9.9
92.56 K, Glass | 142.2 ± 10
93.97 K, Glass | 143.4 ± 10
95.39 K, Glass | 145.2 ± 10
96.79 K, Glass | 146.4 ± 10
98.17 K, Glass | 147.5 ± 10
99.54 K, Glass | 149.6 ± 10
100.91 K, Glass | 151 ± 11
102.27 K, Glass | 151.6 ± 11
103.61 K, Glass | 152.9 ± 11
104.96 K, Glass | 154.3 ± 11
106.29 K, Glass | 155.3 ± 11
107.62 K, Glass | 155.8 ± 11
108.95 K, Glass | 157.3 ± 11
110.26 K, Glass | 158.3 ± 11
111.57 K, Glass | 159.1 ± 11
112.87 K, Glass | 160.6 ± 11
114.17 K, Glass | 162.4 ± 11
115.46 K, Glass | 163.1 ± 11
116.74 K, Glass | 163.6 ± 12
118.02 K, Glass | 165.2 ± 12
119.29 K, Glass | 166.8 ± 12
120.55 K, Glass | 167.9 ± 12
121.82 K, Glass | 168.9 ± 12
123.06 K, Glass | 170.1 ± 12
124.32 K, Glass | 170.7 ± 12
125.55 K, Glass | 172.1 ± 12
126.8 K, Glass | 173.9 ± 12
128.22 K, Glass | 174.7 ± 12
129.84 K, Glass | 176.7 ± 12
131.45 K, Glass | 178.2 ± 12
133.04 K, Glass | 178.9 ± 12
134.63 K, Glass | 180 ± 13
136.21 K, Glass | 181.3 ± 13
137.77 K, Glass | 183.2 ± 13
139.34 K, Glass | 184.6 ± 13
140.89 K, Glass | 185.1 ± 13
142.73 K, Glass | 187.4 ± 13
144.86 K, Glass | 189.6 ± 13
146.97 K, Glass | 191.6 ± 13
149.07 K, Glass | 194.6 ± 14
151.16 K, Glass | 196.7 ± 14
153.21 K, Glass | 198.7 ± 14
155.27 K, Glass | 200.9 ± 14
157.3 K, Glass | 202.8 ± 14
159.33 K, Glass | 203.6 ± 14
161.34 K, Glass | 205.9 ± 14
163.34 K, Glass | 208.6 ± 15
165.33 K, Glass | 210.2 ± 15
167.3 K, Glass | 212.6 ± 15
169.27 K, Glass | 214.9 ± 15
171.23 K, Glass | 216.9 ± 15
173.18 K, Glass | 218.1 ± 15
175.11 K, Glass | 220.4 ± 15
177.05 K, Glass | 223.2 ± 16
178.98 K, Glass | 226 ± 16
180.91 K, Glass | 229.3 ± 16
182.83 K, Glass | 231.6 ± 16
184.74 K, Glass | 234.3 ± 16
186.65 K, Glass | 238 ± 17
188.56 K, Glass | 243.9 ± 17
190.42 K, Glass | 251.8 ± 18
192.11 K, Glass | 273.4 ± 19
193.57 K, Glass | 313.7 ± 22
194.94 K, Glass | 340.7 ± 24
196.36 K, Liquid | 346.8 ± 24
197.81 K, Liquid | 347.7 ± 24
199.27 K, Liquid | 348.4 ± 24
200.76 K, Liquid | 349.4 ± 24
202.25 K, Liquid | 349.9 ± 24
203.79 K, Liquid | 350.5 ± 24
205.33 K, Liquid | 350.9 ± 25
206.9 K, Liquid | 351.5 ± 25
208.47 K, Liquid | 351.9 ± 25
210.06 K, Liquid | 352.4 ± 25
211.66 K, Liquid | 352.8 ± 25
213.18 K, Liquid | 353.2 ± 25
214.52 K, Liquid | 353.7 ± 25
215.86 K, Liquid | 354.1 ± 25
217.18 K, Liquid | 354.5 ± 25
218.5 K, Liquid | 354.9 ± 25
219.81 K, Liquid | 355.4 ± 25
221.12 K, Liquid | 355.7 ± 25
222.41 K, Liquid | 356.1 ± 25
223.71 K, Liquid | 356.5 ± 25
225 K, Liquid | 356.8 ± 25
226.27 K, Liquid | 357.1 ± 25
227.54 K, Liquid | 357.5 ± 25
228.79 K, Liquid | 357.8 ± 25
230.03 K, Liquid | 358.1 ± 25
231.26 K, Liquid | 358.4 ± 25
232.46 K, Liquid | 359 ± 25
233.66 K, Liquid | 359.3 ± 25
234.84 K, Liquid | 359.6 ± 25
236.02 K, Liquid | 359.8 ± 25
237.19 K, Liquid | 360.2 ± 25
238.37 K, Liquid | 360.5 ± 25
239.54 K, Liquid | 361 ± 25
240.7 K, Liquid | 361.3 ± 25
241.86 K, Liquid | 361.5 ± 25
243.01 K, Liquid | 361.9 ± 25
244.15 K, Liquid | 362.2 ± 25
245.29 K, Liquid | 362.5 ± 25
246.43 K, Liquid | 363.1 ± 25
247.58 K, Liquid | 363.5 ± 25
248.73 K, Liquid | 363.9 ± 26
249.88 K, Liquid | 364.2 ± 26
251.02 K, Liquid | 364.5 ± 26
252.17 K, Liquid | 364.8 ± 26
253.31 K, Liquid | 365.5 ± 26
254.45 K, Liquid | 365.8 ± 26
255.6 K, Liquid | 366.1 ± 26
256.73 K, Liquid | 366.3 ± 26
257.87 K, Liquid | 366.8 ± 26
259 K, Liquid | 367.1 ± 26
260.13 K, Liquid | 367.4 ± 26
261.27 K, Liquid | 367.6 ± 26
262.4 K, Liquid | 367.8 ± 26
263.53 K, Liquid | 368 ± 26
264.66 K, Liquid | 368.3 ± 26
265.8 K, Liquid | 368.7 ± 26
266.93 K, Liquid | 369.1 ± 26
268.06 K, Liquid | 369.4 ± 26
269.19 K, Liquid | 369.5 ± 26
270.33 K, Liquid | 369.9 ± 26
271.45 K, Liquid | 370.3 ± 26
272.58 K, Liquid | 370.8 ± 26
273.71 K, Liquid | 371 ± 26
274.83 K, Liquid | 371.2 ± 26
275.94 K, Liquid | 371.5 ± 26
277.06 K, Liquid | 371.8 ± 26
278.18 K, Liquid | 372 ± 26
279.28 K, Liquid | 372.4 ± 26
280.39 K, Liquid | 373 ± 26
281.5 K, Liquid | 373.1 ± 26
282.62 K, Liquid | 373.5 ± 26
283.72 K, Liquid | 373.8 ± 26
284.83 K, Liquid | 374.2 ± 26
285.95 K, Liquid | 374.5 ± 26
287.05 K, Liquid | 374.7 ± 26
288.15 K, Liquid | 375 ± 26
289.26 K, Liquid | 375.4 ± 26
290.37 K, Liquid | 375.6 ± 26
291.47 K, Liquid | 376 ± 26
292.58 K, Liquid | 376.1 ± 26
293.69 K, Liquid | 376.5 ± 26
294.79 K, Liquid | 376.8 ± 26
295.9 K, Liquid | 377 ± 26
297 K, Liquid | 377.4 ± 26
298.11 K, Liquid | 378 ± 26
299.22 K, Liquid | 378.2 ± 26
300.32 K, Liquid | 378.6 ± 26
301.43 K, Liquid | 378.9 ± 26
302.54 K, Liquid | 379.1 ± 26
303.64 K, Liquid | 379.3 ± 27
304.74 K, Liquid | 379.6 ± 27
305.86 K, Liquid | 379.9 ± 27
306.96 K, Liquid | 380.1 ± 27
308.07 K, Liquid | 380.3 ± 27
309.18 K, Liquid | 380.4 ± 27
310.29 K, Liquid | 380.8 ± 27
311.4 K, Liquid | 380.9 ± 27
312.52 K, Liquid | 381.2 ± 27
313.63 K, Liquid | 381.6 ± 27
314.75 K, Liquid | 381.8 ± 27
315.85 K, Liquid | 382 ± 27
316.97 K, Liquid | 382.3 ± 27
318.08 K, Liquid | 382.7 ± 27
319.19 K, Liquid | 383 ± 27
320.31 K, Liquid | 383.1 ± 27
321.42 K, Liquid | 383.4 ± 27
322.53 K, Liquid | 383.6 ± 27
323.66 K, Liquid | 383.9 ± 27
324.75 K, Liquid | 383.9 ± 27
325.84 K, Liquid | 384.4 ± 27
326.92 K, Liquid | 384.6 ± 27
327.99 K, Liquid | 384.8 ± 27
329.08 K, Liquid | 384.9 ± 27
330.17 K, Liquid | 385.1 ± 27
331.26 K, Liquid | 385.6 ± 27
332.35 K, Liquid | 385.9 ± 27
333.43 K, Liquid | 386.1 ± 27
334.52 K, Liquid | 386.5 ± 27
335.6 K, Liquid | 386.6 ± 27
336.68 K, Liquid | 386.9 ± 27
337.77 K, Liquid | 387.3 ± 27
338.86 K, Liquid | 387.4 ± 27
339.94 K, Liquid | 387.8 ± 27
341.04 K, Liquid | 388.1 ± 27
342.13 K, Liquid | 388.3 ± 27
343.22 K, Liquid | 388.6 ± 27
344.31 K, Liquid | 388.9 ± 27
345.4 K, Liquid | 389.2 ± 27
346.49 K, Liquid | 389.5 ± 27
347.58 K, Liquid | 389.7 ± 27
348.65 K, Liquid | 390 ± 27
349.73 K, Liquid | 390.2 ± 27
350.82 K, Liquid | 390.5 ± 27
351.91 K, Liquid | 390.8 ± 27
353.01 K, Liquid | 391.3 ± 27
354.11 K, Liquid | 391.6 ± 27
355.22 K, Liquid | 392 ± 27
356.31 K, Liquid | 392.3 ± 28
357.42 K, Liquid | 392.5 ± 28
358.53 K, Liquid | 392.7 ± 28
359.63 K, Liquid | 392.8 ± 28
360.75 K, Liquid | 392.9 ± 28
361.87 K, Liquid | 393.1 ± 28
363 K, Liquid | 393.4 ± 28
364.13 K, Liquid | 393.5 ± 28
365.29 K, Liquid | 393.6 ± 28
366.38 K, Liquid | 393.9 ± 28
367.47 K, Liquid | 394.1 ± 28
368.52 K, Liquid | 394.5 ± 28
369.63 K, Liquid | 394.7 ± 28
370.76 K, Liquid | 394.9 ± 28
371.78 K, Liquid | 395.1 ± 28
372.82 K, Liquid | 395.3 ± 28
373.9 K, Liquid | 395.6 ± 28
374.98 K, Liquid | 395.8 ± 28
376.02 K, Liquid | 396.2 ± 28
377.08 K, Liquid | 396.5 ± 28
378.13 K, Liquid | 396.8 ± 28
379.52 K, Liquid | 397.1 ± 28
380.42 K, Liquid | 397.3 ± 28
381.38 K, Liquid | 397.5 ± 28
382.35 K, Liquid | 397.8 ± 28
383.43 K, Liquid | 398 ± 28
384.34 K, Liquid | 398.2 ± 28
385.25 K, Liquid | 398.5 ± 28
386.14 K, Liquid | 398.8 ± 28
387.09 K, Liquid | 399.1 ± 28
388.01 K, Liquid | 399.5 ± 28
388.98 K, Liquid | 399.7 ± 28
389.95 K, Liquid | 399.9 ± 28
